Laboratory results published in ChEMBL document CHEMBL3860060, “Discovery and Optimization of 1-Phenoxy-2-aminoindanes as Potent, Selective, and Orally Bioavailable Inhibitors of the Na+/H+ Exchanger Type 3 (NHE3)” (J Med Chem, 2016).

Assays:
[1] = biological target: T1, Sodium/hydrogen exchanger 3 (Homo sapiens, UniProt P48764); test: Inhibition of human NHE3 expressed in LAP1 cell assessed as intracellular pH recovery measured for 2 mins by CECF-AM dye based FLIPR assay
T1 sequence (P48764 whole entry): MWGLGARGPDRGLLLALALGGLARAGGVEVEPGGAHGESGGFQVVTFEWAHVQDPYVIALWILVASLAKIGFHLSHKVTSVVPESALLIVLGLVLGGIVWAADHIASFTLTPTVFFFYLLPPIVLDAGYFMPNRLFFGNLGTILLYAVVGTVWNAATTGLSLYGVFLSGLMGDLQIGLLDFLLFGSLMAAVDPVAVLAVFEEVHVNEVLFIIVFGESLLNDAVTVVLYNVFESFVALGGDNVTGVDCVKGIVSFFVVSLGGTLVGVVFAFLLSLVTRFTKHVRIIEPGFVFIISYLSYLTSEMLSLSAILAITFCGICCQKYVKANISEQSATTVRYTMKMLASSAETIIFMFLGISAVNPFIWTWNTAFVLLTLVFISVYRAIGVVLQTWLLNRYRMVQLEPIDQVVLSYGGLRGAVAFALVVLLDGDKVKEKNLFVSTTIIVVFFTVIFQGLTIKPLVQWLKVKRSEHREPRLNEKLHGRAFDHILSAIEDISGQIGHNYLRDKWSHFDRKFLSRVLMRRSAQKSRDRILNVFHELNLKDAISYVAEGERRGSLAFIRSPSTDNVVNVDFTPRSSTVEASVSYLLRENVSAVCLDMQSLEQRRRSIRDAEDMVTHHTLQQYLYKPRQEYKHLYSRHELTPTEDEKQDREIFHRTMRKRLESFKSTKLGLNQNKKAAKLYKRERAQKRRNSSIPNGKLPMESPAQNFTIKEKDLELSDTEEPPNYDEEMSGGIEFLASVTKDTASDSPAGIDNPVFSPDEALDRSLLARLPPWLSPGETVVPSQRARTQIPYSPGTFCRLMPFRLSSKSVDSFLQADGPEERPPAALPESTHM

[2] = Permeability in human Caco2/TC7 cells assessed as total flux at 20 uM incubated for 2 hrs by LC-MS/MS method; assay type: ADME, cell-based; conditions: Caco-2, read-out: permeability
Cytochrome P450 2D6 = Cytochrome P450 2D6 (Homo sapiens, UniProt P10635)
Cytochrome P450 2D6, sequence (P10635 whole entry): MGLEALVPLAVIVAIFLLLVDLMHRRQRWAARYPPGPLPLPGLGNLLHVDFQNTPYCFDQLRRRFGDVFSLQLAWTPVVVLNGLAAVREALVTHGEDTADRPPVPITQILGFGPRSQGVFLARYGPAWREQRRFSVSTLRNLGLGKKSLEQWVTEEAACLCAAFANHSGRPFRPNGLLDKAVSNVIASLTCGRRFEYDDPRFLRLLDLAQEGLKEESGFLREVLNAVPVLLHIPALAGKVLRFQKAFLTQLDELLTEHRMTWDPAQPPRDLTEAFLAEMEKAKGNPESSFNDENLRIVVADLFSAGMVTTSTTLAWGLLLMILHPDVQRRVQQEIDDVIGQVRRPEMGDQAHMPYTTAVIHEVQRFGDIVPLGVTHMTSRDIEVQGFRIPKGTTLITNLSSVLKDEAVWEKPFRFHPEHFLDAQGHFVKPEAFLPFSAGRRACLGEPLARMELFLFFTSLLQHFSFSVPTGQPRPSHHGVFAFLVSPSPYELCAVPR
Description: Inhibition of CYP2D6 in pooled human hepatic microsomes using dextromethorphan substrate in presence of NADPH

IC50 [1] | Papp at 2 h, 20 µM [2] | IC50 (Cytochrome P450 2D6) | SMILES
0.093 µM | 6.4 ×10⁻⁶ cm/s | < 0.3 µM | CN1CCCN([C@H]2Cc3c(Cl)cc(Cl)cc3[C@@H]2Oc2ccc(S(C)(=O)=O)cc2)CC1
0.17 µM |  |  | Cc1c(O[C@H]2c3ccccc3C[C@@H]2N2CCCC2)ccc(-n2c(C)nnc2C)c1C
0.023 µM | 1.1 ×10⁻⁶ cm/s | < 0.3 µM | N[C@@H]1CCCN([C@H]2Cc3c(Cl)cc(Cl)cc3[C@@H]2Oc2ccc(-n3ccnc3)cc2)C1
0.123 µM | 13.2 ×10⁻⁶ cm/s | 0.4 µM | NS(=O)(=O)c1ccc(O[C@H]2c3ccccc3C[C@@H]2N2CCCC2)c(Cl)c1Cl
0.241 µM | 6 ×10⁻⁶ cm/s | < 0.3 µM | CN1C[C@@H]2CN([C@H]3Cc4c(Cl)cc(Cl)cc4[C@@H]3Oc3ccc(S(C)(=O)=O)cc3)C[C@@H]2C1
1.64 µM |  |  | CS(=O)(=O)c1ccc(O[C@H]2c3cc(Cl)cc(Cl)c3C[C@@H]2N2CC(O)C2)cc1
0.54 µM |  |  | CS(=O)(=O)c1ccc(O[C@H]2c3cc(Cl)ccc3C[C@@H]2N2CCNCC2)cc1 (racemic)
0.064 µM | 11 ×10⁻⁶ cm/s | < 0.3 µM | COCCN1CCCN([C@H]2Cc3c(Cl)cc(Cl)cc3[C@@H]2Oc2ccc(S(C)(=O)=O)cc2)CC1
4.5 µM |  |  | N#Cc1ccc(O[C@H]2c3ccccc3C[C@@H]2N2CCCC2)cc1
0.048 µM |  |  | CN(C)CCCN(C)[C@H]1Cc2c(Cl)cc(Cl)cc2[C@@H]1Oc1ccc(S(C)(=O)=O)cc1
0.5 µM |  |  | NS(=O)(=O)c1ccc(O[C@H]2c3ccccc3C[C@@H]2N2CCCC2)cc1
0.078 µM | 6.7 ×10⁻⁶ cm/s | 0.73 µM | Cc1nnc(C)n1-c1ccc(O[C@H]2c3ccccc3C[C@@H]2N2CCCC2)c(Cl)c1
0.54 µM | 19.2 ×10⁻⁶ cm/s |  | CS(=O)(=O)c1ccc(O[C@H]2c3ccccc3C[C@@H]2N2CCCC2)c(Cl)c1Cl
3.49 µM |  |  | CS(=O)(=O)c1ccc(O[C@H]2c3cc(F)ccc3C[C@@H]2N2CCNCC2)cc1 (racemic)
9.52 µM |  |  | c1ccc2c(c1)C[C@H](N1CCCC1)[C@H]2Oc1cccc2cccnc12
2.96 µM |  |  | O=C1CCC(=O)N1c1cccc(O[C@H]2c3ccccc3C[C@@H]2N2CCCC2)c1
0.883 µM |  |  | CS(=O)(=O)c1ccc(O[C@H]2c3cc(Cl)cc(Cl)c3C[C@@H]2N2CC[C@H](F)C2)cc1
0.004 µM |  |  | CS(=O)(=O)c1ccc(O[C@H]2c3cc(Cl)cc(Cl)c3C[C@@H]2N2CCC[C@@H](N)C2)cc1
6.06 µM |  |  | CS(=O)(=O)c1ccc(O[C@H]2c3cc(Cl)c(Cl)cc3C[C@@H]2N2CCCNCC2)cc1 (racemic)
0.011 µM |  |  | CS(=O)(=O)c1ccc(O[C@H]2c3cc(Cl)cc(Cl)c3C[C@@H]2N2CCC3(CCNC3)C2)cc1 (stereo partly drawn)
0.0002 µM | 0.6 ×10⁻⁶ cm/s | 1.5 µM | N[C@@H]1CCCN([C@H]2Cc3c(Cl)cc(Cl)cc3[C@@H]2Oc2ccc(S(N)(=O)=O)c(Cl)c2Cl)C1

More lines, now with the values behind:

SMILES | IC50 [1] | Papp at 2 h, 20 µM [2] | IC50 (Cytochrome P450 2D6)
N[C@@H]1CCCN([C@H]2Cc3c(Cl)cc(Cl)cc3[C@@H]2Oc2ccc(-n3cncn3)cc2)C1 | 0.03 µM | 2.4 ×10⁻⁶ cm/s | < 0.3 µM
Cc1noc(C)c1-c1ccc(O[C@H]2c3ccccc3C[C@@H]2N2CCCC2)cc1 | 0.411 µM |  | 
CS(=O)(=O)c1ccc(O[C@H]2c3cc(Cl)cc(Cl)c3C[C@@H]2N2CCCNCC2)c(Cl)c1 | 0.002 µM |  | 
CS(=O)(=O)c1ccc(O[C@H]2c3c(Cl)cc(Cl)cc3C[C@@H]2N2CCNCC2)cc1 | 0.135 µM |  | 
Cc1nncn1-c1ccc(O[C@H]2c3ccccc3C[C@@H]2N2CCCC2)cc1 | 0.64 µM |  | 
CC(=O)Nc1ccc(O[C@H]2c3ccccc3C[C@@H]2N2CCCC2)cc1 | 2.77 µM |  | 
Cc1nnc(C)n1-c1ccc(O[C@H]2c3ccccc3C[C@@H]2N2CCCC2)cc1 | 0.345 µM |  | 
CC(=O)Nc1cccc(O[C@H]2c3ccccc3C[C@@H]2N2CCCC2)c1 | 0.438 µM | 9.1 ×10⁻⁶ cm/s | 0.64 µM
CS(=O)(=O)c1ccc(O[C@H]2c3cc(Cl)cc(Cl)c3C[C@@H]2N2CCNCC2)cc1 | 0.022 µM | 3 ×10⁻⁶ cm/s | < 0.3 µM
C[C@@H]1CN([C@H]2Cc3c(Cl)cc(Cl)cc3[C@@H]2Oc2ccc(S(C)(=O)=O)cc2)CCN1 | 0.02 µM | 5.1 ×10⁻⁶ cm/s | 
CN1CCN([C@H]2Cc3c(Cl)cc(Cl)cc3[C@@H]2Oc2ccc(S(C)(=O)=O)cc2)CC1 | 4.04 µM |  | 
CS(=O)(=O)c1ccc(O[C@H]2c3ccccc3C[C@@H]2N2CCNCC2)cc1 | 6.68 µM |  | 
CS(=O)(=O)c1ccc(O[C@H]2c3cc(Cl)cc(Cl)c3C[C@@H]2N2CCC[C@@H](NCCO)C2)cc1 | 0.004 µM |  | 
CC(=O)Nc1cccc(O[C@H]2c3ccccc3C[C@@H]2N2CCC[C@@H](N)C2)c1 | 0.44 µM | 0.03 ×10⁻⁶ cm/s | 5.1 µM
c1ccc2c(c1)C[C@H](N1CCCC1)[C@H]2Oc1ccc(-c2nccs2)cc1 | 1.71 µM |  | 
CS(=O)(=O)c1ccc(O[C@H]2c3cc(F)cc(Cl)c3C[C@@H]2N2CCNCC2)cc1 (racemic) | 0.123 µM |  | 
Cc1nnc(C)n1-c1ccc(O[C@H]2c3cc(Cl)ccc3C[C@@H]2N2CCCC2)c(Cl)c1 | 0.094 µM | 16.2 ×10⁻⁶ cm/s | 2.5 µM
O=C1OCCN1c1cccc(O[C@H]2c3ccccc3C[C@@H]2N2CCCC2)c1 | 0.955 µM |  | 
NC(=O)Nc1cccc(O[C@H]2c3ccccc3C[C@@H]2N2CCC[C@@H](N)C2)c1 | 0.33 µM | 0.04 ×10⁻⁶ cm/s | 8.6 µM
O=C1OCc2cc(O[C@H]3c4ccccc4C[C@@H]3N3CCCC3)ccc21 | 2.44 µM |  | 
CS(=O)(=O)c1ccc(O[C@H]2c3ccccc3C[C@@H]2N2CCCC2)cc1 | 0.572 µM | 21.5 ×10⁻⁶ cm/s | < 0.3 µM

SMILES | IC50 [1] | Papp at 2 h, 20 µM [2] | IC50 (Cytochrome P450 2D6)
Cc1nnc(C)n1-c1ccc(O[C@H]2c3cc(Cl)ccc3C[C@@H]2N2CC[C@@H](O)C2)c(Cl)c1 | 0.09 µM | 0.5 ×10⁻⁶ cm/s | 9.5 µM
O=c1[nH]ccn1-c1cccc(O[C@H]2c3ccccc3C[C@@H]2N2CCCC2)c1 | 0.281 µM | 9.8 ×10⁻⁶ cm/s | 3.8 µM
CS(=O)(=O)c1ccc(O[C@H]2c3cc(Cl)cc(Cl)c3C[C@@H]2N2CC[C@H](O)C2)cc1 | 0.384 µM |  | 
CN(C)CCN(C)[C@H]1Cc2c(Cl)cc(Cl)cc2[C@@H]1Oc1ccc(S(C)(=O)=O)cc1 | 0.02 µM | 8 ×10⁻⁶ cm/s | < 0.3 µM
O=S1(=O)CCCN1c1cccc(O[C@H]2c3ccccc3C[C@@H]2N2CCCC2)c1 | 1.53 µM |  | 
CC(=O)Nc1cc(O[C@H]2c3ccccc3C[C@@H]2N2CCCC2)ccn1 | 4.53 µM |  | 
Cn1ccn(-c2cccc(O[C@H]3c4ccccc4C[C@@H]3N3CCCC3)c2)c1=O | 0.197 µM | 9.8 ×10⁻⁶ cm/s | < 0.3 µM
CS(=O)(=O)c1ccc(O[C@H]2c3c(ccc(Cl)c3Cl)C[C@@H]2N2CCCNCC2)cc1 | 0.043 µM |  | 
N[C@@H]1CCCN([C@H]2Cc3ccccc3[C@@H]2Oc2ccc(S(N)(=O)=O)c(Cl)c2Cl)C1 | 0.65 µM | 0.08 ×10⁻⁶ cm/s | < 0.3 µM
CS(=O)(=O)c1ccc(O[C@H]2c3cc(Cl)cc(Cl)c3C[C@@H]2N2CCC[C@@H](NCCF)C2)cc1 | 0.056 µM | 10.5 ×10⁻⁶ cm/s | < 0.3 µM
CS(=O)(=O)c1ccc(O[C@H]2c3cc(Cl)cc(Cl)c3C[C@@H]2N2CC[C@@H](F)C2)cc1 | 0.166 µM |  | 
CCN(CC)C(=O)c1ccc(O[C@H]2c3ccccc3C[C@@H]2N2CCCC2)cc1 | 2.07 µM |  | 
O=C1CCCN1c1cccc(O[C@H]2c3ccccc3C[C@@H]2N2CCCC2)c1 | 3.52 µM |  | 
Cc1nnc(C)n1-c1ccc(O[C@H]2c3ccccc3C[C@@H]2N2CCCC2)c(C(F)(F)F)c1 | 0.118 µM |  | 
CS(=O)(=O)c1ccc(OC2c3cc(Cl)cc(Cl)c3CC2N2C[C@H]3CNC[C@H]3C2)cc1 (single isomer, unassigned) | 0.028 µM | 0.07 ×10⁻⁶ cm/s | 0.9 µM
Cc1nnc(C2CC2)n1-c1ccc(O[C@H]2c3ccccc3C[C@@H]2N2CCCC2)cc1 | 0.272 µM |  | 
CS(=O)(=O)c1ccc(O[C@H]2c3cc(Cl)cc(Cl)c3C[C@@H]2N2CCCN(CCO)CC2)cc1 | 0.03 µM |  | 
CS(=O)(=O)c1ccc(O[C@H]2c3cc(Cl)cc(Cl)c3C[C@@H]2N2CC[C@@H](O)C2)cc1 | 0.588 µM | 28.6 ×10⁻⁶ cm/s | 2.4 µM
CS(=O)(=O)c1ccc(O[C@H]2c3cc(Cl)cc(F)c3C[C@@H]2N2CCCC2)cc1 (racemic) | 0.737 µM | 28.3 ×10⁻⁶ cm/s | < 0.3 µM
CS(=O)(=O)c1ccc(O[C@H]2c3cc(Cl)cc(F)c3C[C@@H]2N2CCNCC2)cc1 (racemic) | 0.168 µM |  | 
CS(=O)(=O)c1ccc(O[C@H]2c3cc(Cl)cc(Cl)c3C[C@@H]2N2CCCNCC2)cc1 | 0.006 µM | 1.6 ×10⁻⁶ cm/s | < 0.3 µM
